From patent US20240252581A1, “COMPOSITIONS AND METHODS FOR TREATING RESPIRATORY DISTRESS” (S.I.S. SHULOV INNOVATIVE SCIENCE LTD., priority 2021, published 2024)
“And” between values parts separate entries of the source, which are not always exact repeats. Equal entries are not always repeated. Square brackets hold non-standard residues; d marks the D form. Peptide text beside a SMILES is read from it. * marks the point of attachment. pGlu = O=C1CC[C@@H](C(=O)O)N1; Octanoyl = CCCCCCCC(=O)*

System: inflammatory cytokines in BALF
Test: LPS-induced acute lung injury / ARDS mouse model: BALF cytokine concentrations (multiplex ELISA)
Type: in vivo, BALB/c mice
Parameters: key to INF-γ / IL-1α / IL-5 / IL-6 / IL-10 / IL-12 / IL-17 / KC / MCP-1 / TNF-α / CXCL10 / RANTES / G-CSF / CCL3: (+) indicates activation; (−) indicates inhibition
Description: In order to test the efficacy of ZEP3 sodium on lung inflammation, the lipopolysaccharide (LPS)-induced acute lung injury model was used. In particular, LPS was administered intratracheally at doses of 10 or 40 mg/kg body weight (BW) corresponding to 0.2 or 0.8 mg/mouse, respectively.
ZEP3 sodium was administered by inhalation (INH) at doses of 25 or 250 mg/kg BW (0.5 or 5 mg/mouse, respectively), or intratracheally (IT) at doses of 5 or 20 mg/kg BW (0.1 or 0.4 mg/mouse, respectively) 6 hours after LPS administration and its effect was measured 72 hours following administration in the branchial alveolar fluid (BALF) using FACS instrumentation.
To detect cytokine release in lungs fluid, cytokine concentrations were assessed in BALF samples using high sensitivity multiplex ELISA assays for: IFN-γ, IL-1α, IL-5, IL-6, IL-10, IL-12 (p70), IL-17A, KC, MCP-1, TNF-α, IP-10, RANTES, G-CSF, MIP-1α and RANTES. ZEP3Na administered intratracheally at 0.1 and 0.4 mg per mouse after instillation of 0.2 mg LPS inhibited the concentration of following interleukins: IL-1α, IL-6, IL-10, IL-12, IL-17, KC, MCP-1, TNF-α and G-CSF.

[1] = Group 9: LPS 0.2 mg + ZEP3Na 0.4 mg IT, BALF, group mean
[2] = Group 9: LPS 0.2 mg + ZEP3Na 0.4 mg IT, BALF, individual mice
[3] = LPS 0.2 mg + ZEP3Na (IT) 0.1 mg, BALF
[4] = LPS 0.2 mg + ZEP3Na (IT) 0.4 mg, BALF
[5] = LPS 0.8 mg + ZEP3Na (INH) 0.5 mg, BALF
[6] = LPS 0.8 mg + ZEP3Na (INH) 5 mg, BALF
[7] = LPS 0.8 mg + ZEP3Na (IT) 0.1 mg, BALF
[8] = LPS 0.8 mg + ZEP3Na (IT) 0.4 mg, BALF

`CCCCCCCC(=O)NCCCC[C@H](NC(=O)[C@H](Cc1c[nH]c2ccccc12)NC(=O)[C@H](CC(N)=O)NC(=O)[C@@H]1CCC(=O)N1)C(=O)O` [ZEP3Na, pGlu-Asn-Trp-Lys(Octanoyl)-ONa] ([pGlu]NWK(Octanoyl)-OH) was tested, and the “KC” value [1] was 751.10 pg/mL, the “MCP-1” value [1] was 180.27 pg/mL and the “G-CSF” value [2] was 176.85 pg/mL and 200.57 pg/mL and 585.70 pg/mL and 211.19 pg/mL and 8.45 pg/mL and 138.72 pg/mL and 227.63 pg/mL. The “G-CSF (pg/ml)” value [2] was “undetected”, the “IL-12 (p70)” value [2] was 408.22 pg/ml and 471.74 pg/ml and 15.41 pg/ml (2×) and 262.69 pg/ml and 11.53 pg/ml and 8.09 pg/ml and 115.45 pg/ml and 140.60 pg/ml and the “IL-17A” value [2] was 386.05 pg/mL and 1361.97 pg/mL and 15.26 pg/mL and 3386.75 pg/mL and 22.20 pg/mL and 4.57 pg/mL and 2.99 pg/mL and 21.13 pg/mL and 55.67 pg/mL. For the same compound, the “KC” value [2] was 1154.03 pg/mL and 1559.44 pg/mL and 1143.16 pg/mL and 1153.90 pg/mL and 127.59 pg/mL and 63.82 pg/mL and 75.31 pg/mL and 656.41 pg/mL and 826.24 pg/mL, the “MCP-1” value [2] was 240.17 pg/mL and 115.81 pg/mL and 823.17 pg/mL and 151.55 pg/mL and 14.15 pg/mL and 102.63 pg/mL and 174.95 pg/mL and the “MCP-1 (pg/ml)” value [2] was “undetected”. The CXCL10 [3] was “−”, the G-CSF [3] was “−” and the IL-1α [3] was “−”. For the same compound, the IL-6 [3] was “−”, the IL-10 [3] was “−” and the IL-12 [3] was “−”. The IL-17 [3] was “−”, the KC [3] was “−” and the MCP-1 [3] was “−”. For the same compound, the TNF-α [3] was “−”, the CXCL10 [4] was “−” and the G-CSF [4] was “−”. For the same compound, the IL-1α [4] was “−”, the IL-6 [4] was “−” and the IL-10 [4] was “−”. The IL-12 [4] was “−”, the IL-17 [4] was “−” and the KC [4] was “−”. The MCP-1 [4] was “−”, the TNF-α [4] was “−” and the CCL3 [5] was “−”. The CXCL10 [5] was “−”, the G-CSF [5] was “−” and the IL-1α [5] was “−”. The IL-5 [5] was “−”, the IL-6 [5] was “−” and the IL-10 [5] was “+”. For the same compound, the IL-12 [5] was “−”, the IL-17 [5] was “−” and the INF-γ [5] was “−”. For the same compound, the KC [5] was “−”, the MCP-1 [5] was “−” and the RANTES [5] was “−”. For the same compound, the TNF-α [5] was “−”, the CCL3 [6] was “−” and the CXCL10 [6] was “−”. For the same compound, the G-CSF [6] was “−”, the IL-1α [6] was “−” and the IL-5 [6] was “−”. For the same compound, the IL-6 [6] was “−”, the IL-10 [6] was “+” and the IL-12 [6] was “−”. For the same compound, the IL-17 [6] was “−”, the INF-γ [6] was “−” and the KC [6] was “−”. For the same compound, the MCP-1 [6] was “−”, the RANTES [6] was “−” and the TNF-α [6] was “−”. For the same compound, the IL-12 [7] was “−”, the TNF-α [7] was “−” and the IL-12 [8] was “−”. For the same compound, the TNF-α [8] was “−”, the “levels of INF-γ, IL-1α, IL-5, IL-6, IL-12, IL-17, KC, MCP-1, TNF-α, CXCL10, RANTES, G-CSF, and CCL3” value (administered by inhalation following LPS instillation) was “significantly inhibited the expression and reduced the levels” and the “levels of IL-1α, IL-6, IL-10, IL-12, IL-17, KC, MCP-1, TNF-α, CXCL10, and G-CSF” value (administered intratracheally following LPS instillation) was “significantly inhibited the expression and reduced the levels”. For the same compound, the “concentration of IL-1α, IL-6, IL-10, IL-12, IL-17, KC, MCP-1, TNF-α and G-CSF” value (intratracheally at 0.1 and 0.4 mg per mouse after instillation of 0.2 mg LPS, BALF) was “inhibited”.
